Target: RNA-directed RNA polymerase (Hepacivirus hominis, UniProt O39930)
Test: Inhibitory activity against HCV delta 21 NS5B RNA polymerase by SPA assay
Set-up: species or system Hepatitis C virus subtype 1b

RNA-directed RNA polymerase, sequence (O39930 whole entry): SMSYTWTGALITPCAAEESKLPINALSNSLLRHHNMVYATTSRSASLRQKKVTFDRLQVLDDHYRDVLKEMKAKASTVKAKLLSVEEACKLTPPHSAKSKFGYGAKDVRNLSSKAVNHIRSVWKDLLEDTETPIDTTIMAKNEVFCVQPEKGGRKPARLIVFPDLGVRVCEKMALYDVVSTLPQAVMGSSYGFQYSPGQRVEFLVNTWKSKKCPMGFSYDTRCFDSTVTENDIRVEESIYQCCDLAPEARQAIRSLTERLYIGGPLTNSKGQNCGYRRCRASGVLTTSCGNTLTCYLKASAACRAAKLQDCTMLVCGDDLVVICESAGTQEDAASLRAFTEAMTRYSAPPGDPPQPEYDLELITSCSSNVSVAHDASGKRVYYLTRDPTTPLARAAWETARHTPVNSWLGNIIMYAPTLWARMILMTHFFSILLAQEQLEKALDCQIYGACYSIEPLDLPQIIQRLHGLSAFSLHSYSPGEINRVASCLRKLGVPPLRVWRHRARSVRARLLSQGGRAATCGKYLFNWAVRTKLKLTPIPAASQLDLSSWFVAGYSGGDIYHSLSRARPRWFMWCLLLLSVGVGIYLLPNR

| IC50 | Compound |
| --- | --- |
| 2690 nM | O=c1c(C2=NS(=O)(=O)c3ccccc3N2)c(O)c2ccccc2n1Cc1ccccn1 |
| 65 nM | CCC(C)CCn1c(=O)c(C2=NS(=O)(=O)c3ccccc3N2)c(O)c2ccccc21 (centres undefined) |
| 106 nM | O=c1c(C2=NS(=O)(=O)c3ccccc3N2)c(O)c2ccccc2n1CCCC(F)(F)F |
| 21 nM | CC(C)CCn1c(=O)c(C2=Nc3ccccc3S(=O)(=O)N2)c(O)c2cc(NCC(=O)O)ccc21 |
| 696 nM | CC(C)(C)C(=O)Cn1c(=O)c(C2=NS(=O)(=O)c3ccccc3N2)c(O)c2cc(F)ccc21 |
| 108 nM | CC(C)Cn1c(=O)c(C2=Nc3ccccc3S(=O)(=O)N2)c(O)c2ccccc21 |
| 2540 nM | C[S+]([O-])CCn1c(=O)c(C2=NS(=O)(=O)c3ccccc3N2)c(O)c2ccccc21 (centres undefined) |
| 2440 nM | O=c1c(C2=Nc3ccccc3S(=O)(=O)N2)c(O)c2ccccc2n1Cc1ccc([N+](=O)[O-])cc1 |
| 1040 nM | CC(C)CCn1c(=O)c(C2=NS(=O)(=O)c3ccccc3N2)c(O)c2cc(C(=O)O)ccc21 |
| 62 nM | CC(C)CCn1c(=O)c(C2=Nc3ccccc3S(=O)(=O)N2)c(O)c2cc(N)ccc21 |
| 1740 nM | COCCOc1ccc2c(c1)c(O)c(C1=NS(=O)(=O)c3ccccc3N1)c(=O)n2CCC(C)C |
| 9940 nM | CC(C)CCn1c(=O)n(C2=Nc3ccccc3S(=O)(=O)N2)c(=O)c2ccccc21 |
| 132 nM | O=c1c(C2=NS(=O)(=O)c3ccccc3N2)c(O)c2ccccc2n1CC1CCCC1 |
| 484 nM | O=c1c(C2=NS(=O)(=O)c3ccccc3N2)c(O)c2ccccc2n1CC1CCOC1 (centres undefined) |
| 528 nM | O=c1c(C2=NS(=O)(=O)c3ccccc3N2)c(O)c2ccccc2n1CC1CCCO1 (centres undefined) |
| 150 nM | C/C=C/Cn1c(=O)c(C2=Nc3ccccc3S(=O)(=O)N2)c(O)c2ccccc21 |
| 340 nM | CC(C)CCn1c(=O)c(C2=Nc3ccccc3S(=O)(=O)N2)c(O)c2c(F)cccc21 |
| 3950 nM | CC(C)CCn1c(=O)c(C2=Nc3ccccc3S(=O)(=O)N2)c(O)c2cc(OCc3ccccc3)ccc21 |
| 179 nM | C#CCCCn1c(=O)c(C2=Nc3ccccc3S(=O)(=O)N2)c(O)c2ccccc21 |
| 144 nM | CC(C)CCn1c(=O)c(C2=Nc3ccccc3S(=O)(=O)N2)c(O)c2c(-c3ccccc3)cccc21 |
| 367 nM | O=c1c(C2=Nc3ccccc3S(=O)(=O)N2)c(O)c2ccccc2n1CC1CCCCC1 |

| IC50 | Compound |
| --- | --- |
| 21 nM | CC(C)(C)CCn1c(=O)c(C2=NS(=O)(=O)c3ccccc3N2)c(O)c2ccccc21 |
| 105 nM | CC(C)CCn1c(=O)c(C2=Nc3ccccc3S(=O)(=O)N2)c(O)c2c(Br)cccc21 |
| 53 nM | CSCCn1c(=O)c(C2=NS(=O)(=O)c3ccccc3N2)c(O)c2ccccc21 |
| 205 nM | CC(C)CCn1c(=O)c(C2=Nc3ccccc3S(=O)(=O)N2)c(O)c2cc(Br)ccc21 |
| 206 nM | Cc1cccc2c1c(O)c(C1=Nc3ccccc3S(=O)(=O)N1)c(=O)n2CCC(C)C |
| 41 nM | CC1CC1Cn1c(=O)c(C2=Nc3ccccc3S(=O)(=O)N2)c(O)c2ccccc21 (centres undefined) |
| 78 nM | O=c1c(C2=Nc3ccccc3S(=O)(=O)N2)c(O)c2ccccc2n1CC1CC1 |
| 49 nM | O=c1c(C2=Nc3ccccc3S(=O)(=O)N2)c(O)c2ccccc2n1CC1CCC1 |
| 304 nM | Cc1nc(Cn2c(=O)c(C3=Nc4ccccc4S(=O)(=O)N3)c(O)c3ccccc32)cs1 |
| 34 nM | CC(C)CCn1c(=O)c(C2=Nc3ccccc3S(=O)(=O)N2)c(O)c2cc(OCC#N)ccc21 |
| 338 nM | CC(C)CCn1c(=O)c(C2=NS(=O)(=O)c3ccccc3N2)c(O)c2c([N+](=O)[O-])cccc21 |
| 2040 nM | CCOC(=O)n1c(=O)c(C2=NS(=O)(=O)c3ccccc3N2)c(O)c2ccccc21 |
| 90 nM | O=c1c(C2=Nc3ccccc3S(=O)(=O)N2)c(O)c2cccc(F)c2n1CCC1CC1 |
| 33 nM | CC(C)CCn1c(=O)c(C2=NS(=O)(=O)c3ccccc3N2)c(O)c2c(Cl)cccc21 |
| 1300 nM | O=c1c(C2=Nc3ccccc3S(=O)(=O)N2)c(O)c2ccccc2n1CCCCO |
| 316 nM | O=c1c(C2=NS(=O)(=O)c3ccccc3N2)c(O)c2ccccc2n1Cc1cccnc1 |
| 90 nM | C=CCCn1c(=O)c(C2=NS(=O)(=O)c3ccccc3N2)c(O)c2ccccc21 |
| 2220 nM | CCn1c(=O)c(C2=Nc3ccccc3S(=O)(=O)N2)c(O)c2ccccc21 |
| 95 nM | O=c1c(C2=NS(=O)(=O)c3ccccc3N2)c(O)c2ccccc2n1Cc1ccc(Br)cc1 |
| 115 nM | CCOC(=O)CNc1ccc2c(c1)c(O)c(C1=Nc3ccccc3S(=O)(=O)N1)c(=O)n2CCC(C)C |
| 172 nM | N#CCCCn1c(=O)c(C2=NS(=O)(=O)c3ccccc3N2)c(O)c2ccccc21 |

| IC50 | Compound |
| --- | --- |
| 6500 nM | CC(C)CCn1c(=O)c(C2=NS(=O)(=O)c3ccccc3N2)c(O)c2cc(NC(=O)CC(C)C)ccc21 |
| 44 nM | CC(CCn1c(=O)c(C2=NS(=O)(=O)c3ccccc3N2)c(O)c2ccccc21)C(F)(F)F (centres undefined) |
| 5590 nM | Cn1c(=O)c(C2=NS(=O)(=O)c3ccccc3N2)c(O)c2ccccc21 |
| 780 nM | N#Cc1ccccc1Cn1c(=O)c(C2=Nc3ccccc3S(=O)(=O)N2)c(O)c2ccccc21 |
| 23 nM | COc1ccc2c(c1)c(O)c(C1=NS(=O)(=O)c3ccccc3N1)c(=O)n2CCC(C)C |
| 455 nM | CC(C)CCn1c(=O)c(C2=Nc3ccccc3S(=O)(=O)N2)c(O)c2cc([N+](=O)[O-])ccc21 |
| 2810 nM | O=c1c(C2=NS(=O)(=O)c3ccccc3N2)c(O)c2ccccc2n1CCCO |
| 81 nM | O=c1c(C2=Nc3ccccc3S(=O)(=O)N2)c(O)c2ccccc2n1Cc1cccc([N+](=O)[O-])c1 |
| 973 nM | CC(C)CCn1c(=O)c(C2=Nc3ccccc3S(=O)(=O)N2)c(O)c2cc(NC(=O)C3CCCC3)ccc21 |
| 2320 nM | CS(=O)(=O)CCn1c(=O)c(C2=Nc3ccccc3S(=O)(=O)N2)c(O)c2ccccc21 |
| 750 nM | N#CCCCCn1c(=O)c(C2=Nc3ccccc3S(=O)(=O)N2)c(O)c2ccccc21 |
| 80 nM | CCCCCn1c(=O)c(C2=Nc3ccccc3S(=O)(=O)N2)c(O)c2ccccc21 |
| 82 nM | COC(C)CCn1c(=O)c(C2=NS(=O)(=O)c3ccccc3N2)c(O)c2ccccc21 (centres undefined) |
| 118 nM | C#CCCn1c(=O)c(C2=NS(=O)(=O)c3ccccc3N2)c(O)c2ccccc21 |
| 36 nM | O=c1c(C2=Nc3ccccc3S(=O)(=O)N2)c(O)c2ccccc2n1Cc1cccc(Br)c1 |
| 82 nM | O=c1c(C2=Nc3ccccc3S(=O)(=O)N2)c(O)c2ccccc2n1Cc1ccccc1 |
| 61 nM | O=c1c(C2=NS(=O)(=O)c3ccccc3N2)c(O)c2ccccc2n1Cc1ccncc1 |
| 47 nM | CC(C)CCn1c(=O)c(C2=NS(=O)(=O)c3ccccc3N2)c(O)c2c(O)cccc21 |
| 4230 nM | CC(C)CCn1c(=O)c(C2=NS(=O)(=O)c3ccccc3N2)c(O)c2cc(NC(=O)c3ccccc3)ccc21 |
| 290 nM | CC(Br)CCn1c(=O)c(C2=Nc3ccccc3S(=O)(=O)N2)c(O)c2ccccc21 (centres undefined) |
| 1550 nM | CCCn1c(=O)c(C2=Nc3ccccc3S(=O)(=O)N2)c(O)c2ccccc21 |

| Compound | IC50 |
| --- | --- |
| NC(=O)CCCn1c(=O)c(C2=Nc3ccccc3S(=O)(=O)N2)c(O)c2ccccc21 | > 10000 nM |
| CCOC(=O)c1ccc2c(c1)c(O)c(C1=NS(=O)(=O)c3ccccc3N1)c(=O)n2CCC(C)C | > 10000 nM |
| CC(C)CCn1c(=O)c(C2=Nc3ccccc3S(=O)(=O)N2)c(O)c2ccc(Br)cc21 | > 10000 nM |
| O=S1(=O)N=C(c2c(O)nc3ccccc3c2O)Nc2ccccc21 | > 10000 nM |
| CCOC(=O)c1ccc2c(O)c(C3=Nc4ccccc4S(=O)(=O)N3)c(=O)n(CCC(C)C)c2c1 | > 10000 nM |
| C=CCn1c(=O)c(C2=Nc3ccccc3S(=O)(=O)N2)c(O)c2ccccc21 | > 10000 nM |
| O=c1c(C2=NS(=O)(=O)c3ccccc3N2)c(O)c2ccccc2n1CCO | > 10000 nM |
| O=c1c(C2=NS(=O)(=O)c3ccccc3N2)c(O)c2ccccc2n1CCc1ccccc1 | > 10000 nM |
| CC(=O)Nc1ccc2c(c1)c(O)c(C1=NS(=O)(=O)c3ccccc3N1)c(=O)n2CCC(C)C | > 10000 nM |
| CC(C)CCn1c(=O)c(C2=Nc3ccccc3S(=O)(=O)N2)c(O)c2ccc(C(=O)O)cc21 | > 10000 nM |
| CC(C)(C)c1ccc(Cn2c(=O)c(C3=NS(=O)(=O)c4ccccc4N3)c(O)c3ccccc32)cc1 | > 10000 nM |
| CC(C)CCn1c(=O)c(C2=Nc3ccccc3S(=O)(=O)N2)cc2ccccc21 | > 10000 nM |
| CN(C)C(=O)Cn1c(=O)c(C2=Nc3ccccc3S(=O)(=O)N2)c(O)c2cc(F)ccc21 | > 10000 nM |
| CC(C)CCn1c(=O)c(C2=Nc3ccccc3S(=O)(=O)N2)c(O)c2ccc(Cl)cc21 | > 10000 nM |
| CC(C)CCn1c(=O)c(C2=NS(=O)(=O)c3ccccc3N2)c(O)c2ccc(/C=C/C(N)=O)cc21 | > 10000 nM |
| CC(C)CCn1c(=O)c(C2=NS(=O)(=O)c3ccccc3N2)c(O)c2cc(I)ccc21 | > 10000 nM |

| Compound | IC50 |
| --- | --- |
| CC(C)CCn1cc(C2=NS(=O)(=O)c3ccccc3N2)c(=O)c2ccccc21 | > 10000 nM |
| O=c1c(C2=NS(=O)(=O)c3ccccc3N2)c(O)c2ccccc2n1CCN1CCCC1 | > 10000 nM |
| CC(C)CCn1c(=O)c(C2=Nc3ccccc3S(=O)(=O)N2)c(O)c2ccc([N+](=O)[O-])cc21 | > 10000 nM |
| CC(C)CCn1c(=O)c(C2=NS(=O)(=O)c3ccccc3N2)c(N)c2ccccc21 | > 10000 nM |
| O=c1c(C2=Nc3ccccc3S(=O)(=O)N2)c(O)c2ccccc2n1Cc1ccccc1[N+](=O)[O-] | > 10000 nM |
| NCCCCn1c(=O)c(C2=NS(=O)(=O)c3ccccc3N2)c(O)c2ccccc21 | > 10000 nM |
| CC(C)CCn1c(=O)c(C2=Nc3ccccc3S(=O)(=O)N2)c(O)c2cccc([N+](=O)[O-])c21 | > 10000 nM |
| CN(C)CCn1c(=O)c(C2=Nc3ccccc3S(=O)(=O)N2)c(O)c2ccccc21 | > 10000 nM |
| O=C(O)CCCn1c(=O)c(C2=Nc3ccccc3S(=O)(=O)N2)c(O)c2ccccc21 | > 10000 nM |
| CC(C)CCn1c(=O)c(C2=NS(=O)(=O)c3ccccc3N2C)c(O)c2ccccc21 | > 2430 nM |
| O=c1c(C2=NS(=O)(=O)c3ccccc3N2)c(O)c2ccccc2n1CCc1ccsc1 | > 10000 nM |
| CCOC(=O)CCCn1c(=O)c(C2=NS(=O)(=O)c3ccccc3N2)c(O)c2ccccc21 | > 10000 nM |
| O=c1c(C2=Nc3ccccc3S(=O)(=O)N2)c(O)c2ccccc2n1CCc1cccs1 | > 10000 nM |
| O=c1c(C2=NS(=O)(=O)c3ccccc3N2)c(O)c2ccccc2n1CCCc1ccccc1 | > 10000 nM |
| O=c1c(C2=Nc3ccccc3S(=O)(=O)N2)c(O)c2ccccc2n1-c1ccccc1 | > 10000 nM |
